Like-named read-outs stand apart in the source and are kept apart here.
Legend:
[1] = tested on: vena cave inferior of the rat (film of fibrin); assay: fibrinolytic activity, procedure of TODD adapted to the vena cave inferior of the rat; type: in vivo; settings: for change in vivo at 10 mg/kg: ip, 40 min, read-out: Fibrinolytic index in % (average increase in fibrinolytic effect compared with control animals); for fibrinolytic index: 100 mg/kg
Protocol: Forschumg, 20, 358, 1970. […]
Male rats weighing 150 to 200 g. and having fasted for 24 hours were divided into two groups. The animals of one group were given the above-indicated dose of the compound to be tested. […] After 40 minutes, the treated animals were sacrificed simultaneously with the control animals, the veins immediately removed, rinsed with physiological salt solution, frozen and cut into pieces having a thickness of 20 microns. On each piece, a film of fibrin was formed by the application of a bovine fibrinogenous solution, rich in plasminogen, and of a thrombin solution.
All the preparations were then fixed with a 10% solution of neutral formol, stained with haematoxylin of Harris and covered with gelatine.
Value = 0: The film of fibrin was intact.
Value = 1: The lysis zones in the endothelium were disseminated.
Value = 2:The lysis zones were larger and more or less joined.
Value = 3:The fibrin in contact with the endothelium was almost completely decomposed.
The fibrinolytic index represents the average of the values of the reactions obtained for each incubation.

[2] = tested on: carragheenin oedema; assay: JANSSEN test, carragheenin-induced paw oedema in the rat; type: in vivo; settings: for ED50: 3 h, read-out: AD50 (amount of compound required to ensure a 50% reduction of the oedema); for anti-inflammatory activity (in words): in vivo
Protocol: The anti-inflammatory activity of the compounds of the invention was determined on the rat by means of the JANSSEN test involving the use of carragheenin as inflammatory agent.
Into the plantar aponeurosis of the back paws of a group of female rats 0.05 ml. of a 1 % suspension of carragheenin was injected one hour after the compound to be tested had been administered by oral route. The size of the paw was measured by plethysmograph both before and three hours after administration of the carragheenin. The anti-inflammatory activity was calculated as the percentage of reduction of the resulting oedema as compared with control animals which had received the same dose of carragheenin without any anti-inflammatory agent. The AD50 was taken as the amount of compound required to ensure a 50% reduction of the oedema.

[3] = acute toxicity in the rat; settings: rat, in vivo
Protocol: (§1) A certain number of toxicity tests were also carried out on rats and mice and in particular acute toxicity tests.

[4] = in vivo; settings: rat, in vivo
Protocol: (§2) As another means of evaluating the utility of the compounds of the invention as anti-inflammatory agents in comparison with the three substances indicated above, trials were carried out on fasting rats in order to determine the degree to which the compounds studied produced gastric ulcers in the animals so treated.

[5] = tested on: gastric ulcers; assay: in vivo; settings: for irritant (ulcer-producing) action relative to Compound A: fasting rats, gastric ulcers, times as irritant as Compound A
Protocol: as §2

[6] = tested on: rats; assay: acute toxicity in the rat; settings: compared with indomethacin and/or phenylbutazone
Protocol: as §1

[7] = acute toxicity in the mouse; settings: in vivo, seven days of observation
[8] = 10 mg/kg, intraperitoneal, rat, 40 minutes

COc1ccc(-c2c(C(=O)c3ccccn3)c3ccccc3n2CCN(C)C)cc1 [[1-β-dimethylaminoethyl-2-(4-methoxy-phenyl)-3-indolyl] (2-pyridyl) ketone]
change in vivo at 10 mg/kg ([1]; Rattus norvegicus): 45%

CN(C)CCCn1c(-c2ccccc2)c(C(=O)c2cccnc2)c2ccccc21 [(1-γ-dimethylaminopropyl-2-phenyl-3-indolyl) (3-pyridyl) ketone]
change in vivo at 10 mg/kg ([1]; Rattus norvegicus): 46%

O=C(c1cccnc1)c1c(-c2ccccc2)[nH]c2ccccc12 [(2-phenyl-3-indolyl)(3-pyridyl) ketone, reference compound]
fibrinolytic index ([1]; rat): 20%

CC(C)c1c(C(=O)c2ccccn2)c2ccccc2n1CCCN1CCCCC1 [(1-γ-piperidinopropyl-2-isopropyl-3-indolyl) (2-pyridyl) ketone]
change in vivo at 10 mg/kg ([1]; Rattus norvegicus): 123%

CN(C)CCn1c(-c2ccc(Cl)cc2)c(C(=O)c2ccncc2)c2ccccc21 [[1-β-dimethylaminoethyl-2-(4-chloro-phenyl)-3-indolyl] (4-pyridyl) ketone]
change in vivo at 10 mg/kg ([1]; Rattus norvegicus): 42%

CC(C)c1c(C(=O)c2cccnc2)c2ccccc2n1CCN1CCCCC1 [piperidinoethyl / isopropyl / 3-pyridyl, (1-β-piperidinoethyl-2-isopropyl 3-indolyl) (3-pyridyl) ketone]
change in vivo at 10 mg/kg ([1]; Rattus norvegicus): 77%

CC(C)c1c(C(=O)c2ccccn2)c2ccccc2n1C [methyl / isopropyl / 2-pyridyl, (1-methyl-2-isopropyl-3-indolyl) (2-pyridyl) ketone]
change in vivo at 10 mg/kg [1, 8]: 105%

CN(C)CCn1c(-c2ccc(Cl)cc2)c(C(=O)c2cccnc2)c2ccccc21 [[1-β-dimethylaminoethyl-2-(4-chloro-phenyl)-3-indolyl] (3-pyridyl) ketone]
change in vivo at 10 mg/kg ([1]; Rattus norvegicus): 40%

CCCc1c(C(=O)c2ccccn2)c2ccccc2n1CCCN(C)C [(1-γ-dimethylaminopropyl-2-n-propyl-3-indolyl) (2-pyridyl) ketone]
change in vivo at 10 mg/kg ([1]; Rattus norvegicus): 66%

CC(C)c1c(C(=O)c2ccncc2)c2ccccc2n1C [methyl / isopropyl / 4-pyridyl, (1-methyl-2-isopropyl-3-indolyl) (4-pyridyl) ketone]
change in vivo at 10 mg/kg [1, 8]: 165%

CN(C)CCCn1c(-c2ccc(F)cc2)c(C(=O)c2cccnc2)c2ccccc21 [[1-γ-dimethylaminopropyl-2-(4-fluoro-phenyl)-3-indolyl] (3-pyridyl) ketone]
change in vivo at 10 mg/kg ([1]; Rattus norvegicus): 75%

CN(C)CCn1c(-c2ccc(F)cc2)c(C(=O)c2cccnc2)c2ccccc21 [[1-β -dimethylaminoethyl-2-(4-fluoro-phenyl)-3-indolyl] (3-pyridyl) ketone]
change in vivo at 10 mg/kg ([1]; Rattus norvegicus): 90%

O=C(c1ccncc1)c1c(-c2ccc(Cl)cc2)n(CCN2CCCCC2)c2ccccc12 [[1-β-piperidinoethyl-2-(4-chloro-phenyl)-3-indolyl] (4-pyridyl) ketone]
change in vivo at 10 mg/kg ([1]; Rattus norvegicus): 50%

CCCCC1C(=O)N(c2ccccc2)N(c2ccccc2)C1=O [Phenylbutazone]
ED50 ([2]; oral, rat, one hour before carragheenin, oedema measured three hours after): 22 mg/kg
anti-inflammatory activity (in words) ([2]; rat): less active than Compound A

COc1ccc2c(c1)c(CC(=O)O)c(C)n2C(=O)c1ccc(Cl)cc1 [Indomethacin]
ED50 ([2]; Rattus norvegicus, po): 4 mg/kg
anti-inflammatory activity (in words) ([2]; rat): more powerful anti-inflammatory agent than Compound A
LD50 ([3]; po): 22.5 mg/kg
selectivity ratio [4]: 1.3
irritant (ulcer-producing) action relative to Compound A [5]: sixty

CN(C)CCn1c(-c2ccc(F)cc2)c(C(=O)c2ccncc2)c2ccccc21 [[1-β-dimethylaminoethyl-2-(4-fluoro-phenyl)-3-indolyl] (4-pyridyl) ketone]
change in vivo at 10 mg/kg ([1]; Rattus norvegicus): 50%

CC(C)c1c(C(=O)c2cccnc2)c2ccccc2n1C [Compound A, (1-methyl-2-isopropyl-3-indolyl) (3-pyridyl) ketone]
ED50 ([2]; Rattus norvegicus, po): 15 mg/kg
LD50 ([3]; ip): 425 mg/kg
LD50 ([3]; po): 2400 mg/kg
toxicity (in words) [6]: less toxic than both indomethacin and phenylbutazone
LD50 at 168 h ([7]; ip, intraperitoneal route): 3250 mg/kg
LD50 at 168 h ([7]; po, intragastric route): 900 mg/kg
selectivity ratio [4]: 20
distance of irritant dose from anti-inflammatory dose (in words) ([5]; compared with indomethacin, phenylbutazone or acetylsalicylic acid): irritant dose is much farther removed from the anti-inflammatory dose

CC(C)c1[nH]c2ccccc2c1C(=O)c1cccnc1 [(2-isopropyl-3-indolyl) (3-pyridyl) ketone, reference compound]
change in vivo at 10 mg/kg [1, 8]: 5%

CC(=O)Oc1ccccc1C(=O)O [Acetylsalicylic acid]
ED50 ([2]; Rattus norvegicus, po): 110 mg/kg
anti-inflammatory activity (in words) ([2]; rat): less active than Compound A
selectivity ratio [4]: 2
irritant (ulcer-producing) action relative to Compound A [5]: one-and-a-half

CC(C)c1c(C(=O)c2cccnc2)c2ccccc2n1CCN(C)C [(1-β-dimethylaminoethyl-2-isopropyl-3-indolyl) (3-pyridyl) ketone]
change in vivo at 10 mg/kg ([1]; Rattus norvegicus): 24%

CC(C)c1c(C(=O)c2ccncc2)c2ccccc2n1CCN(C)C [(1-β-dimethylaminoethyl-2-isopropyl-3-indolyl) (4-pyridyl) ketone]
change in vivo at 10 mg/kg ([1]; Rattus norvegicus): 44%

COc1ccc(-c2c(C(=O)c3ccncc3)c3ccccc3n2CCN(C)C)cc1 [[1-β-dimethylaminoethyl-2-(4-methoxy-phenyl)-3-indolyl] (4-pyridyl) ketone]
change in vivo at 10 mg/kg ([1]; Rattus norvegicus): 42%

CCCc1[nH]c2ccccc2c1C(=O)c1ccccn1 [(2-n-propyl-3-indolyl)(2-pyridyl) ketone, reference compound]
fibrinolytic index ([1]; rat): 2%

CC(C)c1c(C(=O)c2cccnc2)c2ccccc2n1CCCN1CCCCC1 [(1-γ-piperidinopropyl-2-isopropyl-3-indolyl) (3-pyridyl) ketone]
change in vivo at 10 mg/kg ([1]; Rattus norvegicus): 18%

CC(C)c1[nH]c2ccccc2c1C(=O)c1ccncc1 [(2-isopropyl-3-indolyl)(4-pyridyl) ketone, reference compound]
change in vivo at 10 mg/kg [1, 8]: 10%

CCCn1c(C(C)C)c(C(=O)c2cccnc2)c2ccccc21 [n-propyl / isopropyl / 3-pyridyl, (1-n-propyl-2-isopropyl-3-indolyl) (3-pyridyl) ketone]
change in vivo at 10 mg/kg ([1]; Rattus norvegicus): 25%

CCCc1c(C(=O)c2ccccn2)c2ccccc2n1CCN(C)C [(1-β-dimethylaminoethyl-2-n-propyl-3-indolyl) (2-pyridyl) ketone]
change in vivo at 10 mg/kg ([1]; Rattus norvegicus): 50%

CC(C)c1c(C(=O)c2cccnc2)c2ccccc2n1CCCN(C)C [(1-γ-dimethylaminopropyl-2-isopropyl-3-indolyl) (3-pyridyl) ketone]
LD50 ([3]; po): > 2000 mg/kg

CN(C)CCCn1c(-c2ccccc2)c(C(=O)c2ccccn2)c2ccccc21 [(1-γ-dimethylaminopropyl-2-phenyl-3-indolyl) (2-pyridyl) ketone]
change in vivo at 10 mg/kg ([1]; Rattus norvegicus): 46%

COc1ccc(-c2c(C(=O)c3cccnc3)c3ccccc3n2CCN(C)C)cc1 [[1-β-dimethylaminoethyl-2-(4-methoxy-phenyl)-3-indolyl] (3-pyridyl) ketone]
change in vivo at 10 mg/kg ([1]; Rattus norvegicus): 133%

CN(C)CCn1c(-c2ccccc2)c(C(=O)c2ccccn2)c2ccccc21 [(1-β-dimethylaminoethyl-2-phenyl-3-indolyl) (2-pyridyl) ketone]
change in vivo at 10 mg/kg ([1]; Rattus norvegicus): 50%

CN(C)CCn1c(-c2ccccc2)c(C(=O)c2cccnc2)c2ccccc21 [(1-β-dimethylaminoethyl-2-phenyl-3-indolyl) (3-pyridyl) ketone]
change in vivo at 10 mg/kg ([1]; Rattus norvegicus): 96%

CC(C)c1c(C(=O)c2ccncc2)c2ccccc2n1CCCN(C)C [(1-γ-dimethylaminopropyl-2-isopropyl-3-indolyl) (4-pyridyl) ketone]
change in vivo at 10 mg/kg ([1]; Rattus norvegicus): 30%

CC(C)c1c(C(=O)c2ccccn2)c2ccccc2n1CCN(C)C [(1-β-dimethylaminoethyl-2-isopropyl-3-indolyl) (2-pyridyl) ketone]
change in vivo at 10 mg/kg ([1]; Rattus norvegicus): 21%

Reference: patent US4012394A, “Indole derivatives” (Labaz, priority 1973, dated 1977)
